Measured values: PMC6114901, “An automated screening method for detecting compounds with goitrogenic activity using transgenic zebrafish embryos” (PLoS ONE, 2018)
pEC50: −log10 of the molar value. Read-outs that look alike come from different tables or passages of the source.

Key:
[1] = test system: thyroglobulin (tg:mCherry reporter gene); assay: animal or person; conditions: for pEC50: read-out: EC50 (tg:mCherry induction)
Protocol: In order to avoid interference of test chemicals with early thyroid gland development, zebrafish embryos were cultured in exposure medium until 48 hours post fertilization (hpf). Subsequently, they were exposed to seven known thyroid endocrine disrupters for 3 days (48 to 120 hpf). The non-goitrogenic compound 3,4-dichloroaniline, that is used as reference compound in the zebrafish acute embryo toxicity test was used as negative control. […] No solvents were used. […] Five concentrations and one control were tested per compound and replicate. In the second replicate the range of concentration was adjusted to improve fitting of concentration-response curves. […] Given the lack of appropriate spectral properties stability of exposure concentrations was not analysed for potassium perchlorate. Embryos were kept in the incubator at 26°C and a 14:10 hours light:dark cycle. The exposure was conducted in crystallisation dishes covered with watchmaker glasses with 30 embryos in 30 ml exposure medium (for exposure medium refer to [26]).
Embryos were positioned ventrally toward the microscope objective. Per embryo a bright field image, an autofocus fluorescence image and a Z-stack of 9 images were obtained. The Z-stack was required in case of autofocus failure and manual selection of the focal plane. Fluorescence images were obtained with 400 ms of fluorescent light exposure at maximal light intensity and a gain of 1. […] However, care was taken, that at least 10 images per concentration and replicates were assessed. To avoid a time bias during the analysis the sequence of wells for analysis was arranged in order to obtain a uniform distribution over the entire period of analysis.
The images were analysed using a KNIME workflow (Version 3.3.3., [29]) with the extension “KNIME image processing”. In brief, images were loaded into the workflow and the background was removed automatically using the “rolling ball” procedure of the image J plugin (rolling ball size set to 50 pixels). Subsequently the area containing the thyroid gland was manually selected by drawing a rectangle around the appropriate region using the interactive annotation node. […] If possible the autofocus images were used. In case that the thyroid gland was out of focus due to the presence of autofluorescing pigment cells, an appropriate image from the Z-stack was selected. All subsequent steps were conducted without any user interaction. […] Finally the sum of pixel (reflecting area of the thyroid gland and intensity of fluorescence) was calculated for the labeled area and used as a proxy of fluorescence intensity (see Fig 1 for an overview of the workflow). For each replicate the sum was of pixels was normalized by setting controls to the value of one. For data of individual embryos see S4 Table. The KNIME workflow used for image analysis is provided as supplement file (S1 Workflow).
To characterize the potency of the investigated goitrogenic compounds, we calculated EC50 values of tg:mcherry fluorescence using the pixel sum obtained from image analysis. For each replicate the fluorescence intensity was normalized by dividing the mean fluorescence intensity of each concentration with the mean control fluorescence intensity. Concentration-response curves of tgmcherry fluorescence were fitted to the data using the Hill-slope equation (Eq 1) and used to estimate EC50 values.
The parameter Min was set to 1 and the slope (p) and the maximum fluorescence (Max) were estimated.

zebrafish embryos = assay: in vivo; conditions: for Slope: mortality concentration-response curve
Protocol: Fish embryo acute toxicity tests were performed similar as described previously, using 10 or 25 embryos per concentration and replicate exposed in crystallization dishes from 48 to 120 hpf. No exchange of exposure media was performed. Lethality was identified by coagulation, missing heartbeat, a non–detached tail and/or missing of somites. Raw data for mortality and phenotypic assessment are provided as S1 Table. Concentration-response curves for mortality are shown in S2 Fig.

[2] = ref chemspider (http://www.chemspider.com); cited from earlier work
[3] = test system: thyroid hormone levels (T4); conditions: cited from earlier work; for pEC50: read-out: EC50 T4 reduction
[4] = 72 hpf, 17777.78 µmol/L, replicate 2, 10 embryos
[5] = 72 hpf, 26666.67 µmol/L, replicate 2, 10 embryos
[6] = 72 hpf, 40000.00 µmol/L, replicate 2, 10 embryos
[7] = 72 hpf, 60000.00 µmol/L, replicate 2, 10 embryos
[8] = 72 hpf, 90000.00 µmol/L, replicate 2, 10 embryos
[9] = 96 hpf, 17777.78 µmol/L, replicate 2, 10 embryos
[10] = 96 hpf, 26666.67 µmol/L, replicate 2, 10 embryos
[11] = 96 hpf, 40000.00 µmol/L, replicate 2, 10 embryos
[12] = 96 hpf, 60000.00 µmol/L, replicate 2, 10 embryos
[13] = 96 hpf, 90000.00 µmol/L, replicate 2, 10 embryos
[14] = 120 hpf, 5625.00 µmol/L, replicate 1, 25 embryos
[15] = 120 hpf, 11250.00 µmol/L, replicate 1, 25 embryos
[16] = 120 hpf, 17777.78 µmol/L, replicate 2, 10 embryos
[17] = 120 hpf, 22500.00 µmol/L, replicate 1, 25 embryos
[18] = 120 hpf, 26666.67 µmol/L, replicate 2, 10 embryos
[19] = 120 hpf, 40000.00 µmol/L, replicate 2, 10 embryos
[20] = 120 hpf, 45000.00 µmol/L, replicate 1, 25 embryos
[21] = 120 hpf, 60000.00 µmol/L, replicate 2, 10 embryos
[22] = 120 hpf, 90000.00 µmol/L, replicate 1, 25 embryos
[23] = 120 hpf, 90000.00 µmol/L, replicate 2, 10 embryos
[24] = reduction of thyroid hormone levels (immunostaining), ref Thienpont et al. [13]

## c1cn[nH]c1 [Pyrazole, pyrazole]
[1]; zebrafish, in vivo
  pEC50: 3.20
  BMD 20: 399 µM
  Slope: 5.7
  TDI: 67
Zebrafish embryos; [4]
  No Surviving: 10
  No hatched: 0
Zebrafish embryos; [5]
  No Surviving: 10
  No hatched: 0
Zebrafish embryos; [6]
  No Surviving: 10
  No hatched: 0
  Total Sublethal: 3
  nobc (no blood circulation): 3
Zebrafish embryos; [7]
  No Surviving: 0
  No hatched: 0
  nohb (no heartbeat): 10
Zebrafish embryos; [8]
  No Surviving: 0
  No hatched: 0
  nohb (no heartbeat): 10
Zebrafish embryos; [9]
  No Surviving: 10
  No hatched: 10
Zebrafish embryos; [10]
  No Surviving: 10
  No hatched: 8
Zebrafish embryos; [11]
  No Surviving: 10
  No hatched: 9
  Total Sublethal: 10
  nomov (no spontaneous movement): 10
Zebrafish embryos; [12]
  No Surviving: 0
  No hatched: 0
  k/f (coagulated): 5
  nohb (no heartbeat): 5
Zebrafish embryos; [13]
  No Surviving: 0
  No hatched: 0
  k/f (coagulated): 10
Zebrafish embryos; [14]
  No Surviving: 25
  Sublethal effects Total Sublethal: 1
Zebrafish embryos; [15]
  No Surviving: 25
  Sublethal effects Total Sublethal: 1
Zebrafish embryos; [16]
  No Surviving: 10
  No hatched: 10
Zebrafish embryos; [17]
  Lethal effects k/f: 2
  No Surviving: 23
  Sublethal effects Total Sublethal: 12
Zebrafish embryos; [18]
  No Surviving: 10
  No hatched: 9
  Sublethal effects Total Sublethal: 4
  Sublethal effects mch: 1
  Sublethal effects nomov: 4
Zebrafish embryos; [19]
  No Surviving: 10
  No hatched: 9
  Sublethal effects EdY / EdP: 9
  Sublethal effects Total Sublethal: 10
  Sublethal effects nobc: 4
  Sublethal effects nomov: 8
Zebrafish embryos; [20]
  Lethal effects k/f: 25
  No Surviving: 0
Zebrafish embryos; [21]
  Lethal effects k/f: 10
  No Surviving: 0
  No hatched: 0
Zebrafish embryos; [22]
  Lethal effects k/f: 25
  No Surviving: 0
Zebrafish embryos; [23]
  Lethal effects k/f: 10
  No Surviving: 0
  No hatched: 0
Zebrafish embryos; mortality after 24 h of exposure, S2 Fig, unit inferred
  LC50: 49000 µM
Zebrafish embryos; mortality after 48 h of exposure, S2 Fig, unit inferred
  LC50: 49000 µM
Zebrafish embryos; 24 h of exposure
  Slope: 56.2
Zebrafish embryos; 48 h of exposure
  Slope: 56.2
Zebrafish embryos; 72 h of exposure
  Slope: 132
Zebrafish embryos; read-out: LC50 (48–120 hpf), mortality, embryos exposed 48–120 hpf
  LC50: 42400 µM
[2]
  Log D (pH 7.4): 0.43

## S=C1NCCN1 [Ethylenethiourea, N, N’-ethylenethiourea]
[3]; [24]
  pEC50: 3.87
[1]; Danio rerio
  pEC50: 3.44
[1]; zebrafish, in vivo
  BMD 20: 246 µM
  Slope: 3.8
[2]
  Log D (pH 7.4): -0.52

## Oc1cc(O)cc(O)c1 [Phloroglucinol, phloroglucinol]
[3]; [24]
  pEC50: 2.57
[3]; thyroid disruption index based on T4 reduction, ref Thienpont et al. [13]
  TDI (T4): 32
[1]; Danio rerio
  pEC50: 2.96
[1]; zebrafish, in vivo
  BMD 20: 252 µM
  Slope: 0.89
[2]
  Log D (pH 7.4): 0.24

## CCCc1cc(=O)[nH]c(=S)[nH]1 [Propylthiouracil, 6-propyl-2-thiouracil]
[3]; zebrafish, in vivo
  pEC50: 3.86
  TDI (T4): 20
[1]; Danio rerio
  pEC50: 3.48
[1]; zebrafish, in vivo
  BMD 20: 163 µM
  Slope: 1.7
